# Measured values as given in patent US4754059A, “Omega cycloalkyl prostaglandins” (G. D. Searle & Co., priority 1984, dated 1988).
# What was measured:
# gastric secretions = assay: Dog gastric antisecretory activity (histamine-stimulated, Thomas-type gastric cannula); format: in vivo, beagle dogs; conditions: for ED50: Canis lupus familiaris, po, histamine stimulation
# Procedure: The standard test used to detect gastric antisecretory activity is described as follows.
# Adult female beagle dogs weighing 6-11 kg. are prepared with whole stomach simple Thomas-type gastric cannulas.
# Following full recovery from the surgical implantation of the gastric cannula, the dogs are trained to stand quietly, though fully conscious, in Pavlov-type dog restraining slings and are accustomed to intravenous histamine infusion.
# Experiments are initiated by depriving dogs of food, but not water, for 18 hours. With an initial infusion of 0.15M sodium chloride, at a constant rate of 6.5 ml/hr, gastric secretions collected in plastic bottles affixed to the cannula, are taken at 15 minute intervals and measured for volume to the nearest 0.1 ml. Following a 30-45 minute basal secretion period, the collection bottles are removed, dosing plugs inserted, and compound administered. A 3.0 ml saline wash follows immediately.
# After the end of a 30 minute drug absorption period the stomachs are emptied, collection bottles again attached, and the collections resumed at 30 minute intervals. Simultaneously, the saline infusion is replaced with a continuous intravenous infusion of histamine dihydrochloride in saline at 15 ug/kg/hr for four hours. Gastric samples are analysed for pH and titratable acidity determinations.
# An analysis of the data for each measured or derived variable compares observations recorded following treatment with variables obtained for the same group of animals receiving histamine stimulation alone. Three parameters, gastric juice volume (ml/30 min), acid concentration (mEq/L), and total acid output (mEq/30 min) are analyzed individually. The data thus obtained are analyzed using interval-by-interval paired Student's t-test or two-way analysis of variance to achieve an indication of potency and duration of action. Percentage inhibition is calculated using pooled mean values for the four hour treatment period. Duration of activity is defined as the length of time of significant inhibition.
# [1] = Diarrheogenic activity in rats; format: in vivo, Charles River rats
# Procedure: Diarrhea is an undesirable side effect commonly associated with antisecretory and cytoprotective prostaglandins.
# Groups of six adult male Charles River rats, weight range 180 to 200 grams, are fasted for 24 hours prior to administering the test substance. The prostaglandin to be tested is administered intragastrically in iso-osmotic phosphate buffer at a volume of 10 ml/kg at doses ranging from 100 to 3000 microgram/kg. Control animals receive only the vehicle. The rats are placed in individual wire mesh cages and the trays lined with brown paper. Diarrhea is assessed at hourly intervals on an all or none basis for up to eight hours after administration of the prostaglandin. Diarrhea is defined as any loose or watery stool. ED50 values are assessed for each hourly diarrheogenic response.
# [2] = test system: lower esophageal sphincter; assay: Contraction of the lower esophageal sphincter; conditions: no method given
# [3] = intragastric administration, dog
diarrheogenic properties (in words) [1],SMILES,"Dog antisecretory activity (in words) (gastric secretions; intragastric administration, dog, doses 0.3 and 1.0)",ED50 (gastric secretions; [3]) [µg/kg],antisecretory activity (in words) (gastric secretions),property of contracting the lower esophageal sphincter [2]
,"COC(=O)CCC/C=C\C[C@H]1C(=O)C[C@@H](O)[C@@H]1/C=C/CC(C)(O)CCC1CCCC1 (relative stereo) [Compound II, reference compound]",Inactive at 0.3 and 1.0,,,
,COC(=O)CC/C=C\CC[C@H]1C(=O)C[C@@H](O)[C@@H]1/C=C/CC(C)(O)CCC1CC1 (relative stereo) [Example 1],,0.2,,
low,COC(=O)CC/C=C\CC[C@H]1C(=O)C[C@@H](O)[C@@H]1/C=C/CC(C)(O)CCC1CCCC1 (relative stereo) [Example 2],,0.3,potent,contracting the lower esophageal sphincter
low,COC(=O)CC/C=C\CC[C@H]1C(=O)C[C@@H](O)[C@@H]1/C=C/CC(C)(O)CCC1CCC1 (relative stereo) [Example 3],,,potent,
,"COC(=O)CC/C=C\CC[C@H]1C(=O)C[C@@H](O)[C@@H]1/C=C/CC(C)(O)CCC1(C)CC1 (relative stereo) [Example 7, methyl 7-[3α-hydroxy-2β-4-hydroxy-4-methyl-6-(1-methylcyclopropyl)-1-trans-hexenyl-5-oxocyclopentane]-1α-hept-4-cis-enoate]",,0.3,,
